Results as given in patent US20190010158A1, “ANTITUMOR EFFECT POTENTIATOR COMPRISING PYRROLOPYRIMIDINE COMPOUND” (TAIHO PHARMACEUTICAL CO., LTD, priority 2015, published 2019).
Structures can show the parent of a compound that is named as a salt.

Tests used:
[1] = tested on: human breast cancer MDA-MB-453 cell line; assay: Cell growth inhibition 2, MDA-MB-453; type: cell-based
[2] = tested on: human pancreatic cancer Capan-1 cell line; assay: Cell growth inhibition 2, Capan-1; type: cell-based
[3] = tested on: human multiple myeloma U266B1 cell line; assay: Cell growth inhibition 2, U266B1; type: cell-based
[4] = tested on: human skin cancer A-431 cell line; assay: Cell growth inhibition 2, A-431; type: cell-based
[5] = tested on: human lung cancer A-427 cell line; assay: Cell growth inhibition 2, A-427; type: cell-based
[6] = tested on: human colon cancer HCT116 cell line; assay: Cell growth inhibition 2, HCT116; type: cell-based; details: HCT-116
[7] = tested on: human acute T lymphoblastic leukemia CCRF-CEM cell lines; assay: Cell growth inhibition 1 (CellTiter-Glo); type: cell-based; details: culture with test compound 72 hours
[8] = tested on: human acute leukemia MV-4-11 cell line; assay: Cell growth inhibition 2, MV-4-11; type: cell-based; details: MV4-11
[9] = tested on: human prostate cancer LNCAP.FGC cell line; assay: Cell growth inhibition 2, LNCaP.FGC; type: cell-based
[10] = target: T1, NAE (heterodimer of APPBP1 and UBA3) (Homo sapiens, UniProt Q8TBC4); assay: Nedd8 conjugation inhibitory activity (AlphaScreen); type: biochemical; details: purified NAE, GST-UBC12, ATP, Biotin-Nedd8, reaction 90 minutes
T1 construct: amino acids 1 to 463 of human UBA3 protein; made in house; host or cells: Sf9 insect cells (baculovirus co-infection) for NAE; E. coli BL21 (DE3) for GST-UBC12
T1 sequence (Q8TBC4 1-463): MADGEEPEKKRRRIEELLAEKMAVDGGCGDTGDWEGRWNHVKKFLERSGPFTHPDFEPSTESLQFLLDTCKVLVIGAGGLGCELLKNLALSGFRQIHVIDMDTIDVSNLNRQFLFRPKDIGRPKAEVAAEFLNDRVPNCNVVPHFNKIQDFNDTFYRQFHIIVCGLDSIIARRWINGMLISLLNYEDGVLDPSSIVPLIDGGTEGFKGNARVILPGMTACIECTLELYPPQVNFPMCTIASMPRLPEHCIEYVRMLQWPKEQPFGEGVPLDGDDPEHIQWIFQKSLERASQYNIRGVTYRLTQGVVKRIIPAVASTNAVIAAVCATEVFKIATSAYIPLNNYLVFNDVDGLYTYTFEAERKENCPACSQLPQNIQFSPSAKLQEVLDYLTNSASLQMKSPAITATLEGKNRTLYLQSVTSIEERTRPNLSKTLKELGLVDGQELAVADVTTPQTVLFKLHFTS
T1 sequence (Q13564 1-534 partner): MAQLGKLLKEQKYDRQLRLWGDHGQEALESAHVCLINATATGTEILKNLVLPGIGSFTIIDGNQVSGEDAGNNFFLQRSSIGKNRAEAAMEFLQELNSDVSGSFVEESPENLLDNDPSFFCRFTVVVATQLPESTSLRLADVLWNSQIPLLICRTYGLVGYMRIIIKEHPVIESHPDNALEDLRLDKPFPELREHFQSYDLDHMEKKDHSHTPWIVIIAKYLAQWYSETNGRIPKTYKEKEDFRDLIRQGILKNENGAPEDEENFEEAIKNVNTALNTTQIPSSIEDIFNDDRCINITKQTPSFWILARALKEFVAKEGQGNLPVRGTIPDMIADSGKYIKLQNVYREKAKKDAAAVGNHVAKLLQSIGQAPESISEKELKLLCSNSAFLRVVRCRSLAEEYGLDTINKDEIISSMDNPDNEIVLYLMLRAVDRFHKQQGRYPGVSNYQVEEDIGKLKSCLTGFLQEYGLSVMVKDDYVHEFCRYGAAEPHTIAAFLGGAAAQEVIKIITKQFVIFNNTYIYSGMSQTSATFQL

[11] = tested on: human diffuse large B-cell lymphoma DB cell line; assay: Cell growth inhibition 2, DB; type: cell-based
[12] = tested on: human osteo- and soft tissue sarcoma SJCRH30 cell line; assay: Cell growth inhibition 2, SJCRH30; type: cell-based
[13] = tested on: tumor cell lines shown in Table 24; assay: Example 2: combined use with tyrosine kinase inhibitor, cell growth inhibition test (IC50 ratio, CI); type: cell-based; details: MOLT-4; for CI: at ED50
[14] = tested on: human acute myelogenous leukemia (AML) MV-4-11 cell lines; assay: Example 17: tumor growth inhibition in mice, combinational treatment with gilteritinib; type: in vivo; details: MV-4-11 in mice; orally 3 mg/kg/day, days 1-14; day 15
From the text: (§1) RTVn=TVn/TV1 (equation D)
(§2) BWCn (%)=(BWn−BW1)/BW1×100 (equation F)
(§3) The test ended on day 15.

[15] = tested on: tumor cell lines shown in Table 40; assay: Example 10: combined use with HDAC inhibitor, cell growth inhibition test (IC50 ratio, CI); type: cell-based; details: U266B1; for CI: at ED50; for Comprehensive Evaluation: combined use with Reference Example Compound 55
[16] = tested on: human clear cell sarcoma SU-CCS-1 cell lines; assay: Example 18: tumor growth inhibition in mice, combinational treatment with doxorubicin; type: in vivo; details: day 22
From the text: as §1, §2
The test ended on day 22.
The control group was untreated.

[17] = tested on: tumor cell line shown in Table 38; assay: Example 9: combined use with BCL-2 inhibitor, cell growth inhibition test (IC50 ratio, CI); type: cell-based; details: MOLT-4; for CI: at ED50
[18] = tested on: tumor cell line shown in Table 34; assay: Example 7: combined use with Exportin-1 inhibitor, cell growth inhibition test (IC50 ratio, CI); type: cell-based; details: HCT116; for CI: at ED50
[19] = tested on: tumor cell line shown in Table 36; assay: Example 8: combined use with BTK inhibitor, cell growth inhibition test (IC50 ratio, CI); type: cell-based; details: MV-4-11; for CI: at ED50
[20] = tested on: tumor cell lines shown in Table 58; assay: Example 22: combined use with IAP antagonist, cell growth inhibition test (IC50 ratio, CI); type: cell-based; details: HL-60; for CI: at ED50
[21] = tested on: tumor cell line shown in Table 28; assay: Example 4: combined use with PARP inhibitor, cell growth inhibition test (IC50 ratio, CI); type: cell-based; details: A549; for CI: at ED50
U266B1 = assay: Example 1: combined use with proteasome inhibitor, cell growth inhibition test (IC50 ratio, CI), U266B1; type: cell-based, human; details: for CI: at ED50
[22] = tested on: Human multiple myeloma (MM) KMS-26 cell lines; assay: Example 16: tumor growth inhibition in mice, combinational treatment with bortezomib; type: in vivo; details: KMS-26 in mice; 1 mg/kg/day, days 1, 4, 8, 11; day 15
From the text: as §3
A necessary amount of the test compound was weighed to prepare a solution to administer to the mice.
as §1, §2

HL-60 = assay: Example 1: combined use with proteasome inhibitor, cell growth inhibition test (IC50 ratio, CI), HL-60; type: cell-based; details: for CI: at ED50
[23] = Reference Example Compound 55:other compound 1:60
[24] = combined use with Reference Example Compound 55
[25] = IC50 of Reference Example Compound 55 : IC50 of other compound = 1:value
[26] = Reference Example Compound 55:other compound 1:0.07
[27] = SU-CCS-1 in mice, intravenously 8 mg/kg/day, day 1
[28] = Reference Example Compound 55:other compound 1:10
[29] = Reference Example Compound 55:other compound 1:30

## Nc1ncnc2c1c(C#Cc1c(F)cccc1F)cn2[C@@H]1O[C@H](CNS(N)(=O)=O)[C@@H](O)[C@H]1O [Reference Example 1, 4-Amino-5-[2-(2,6-difluorophenyl)ethynyl]-7-[(2R,3R,4S,5R)-3,4-dihydroxy-5-[(sulfamoylamino)methyl]tetrahydrofuran-2-yl]pyrrolo[2,3-d]pyrimidine]
[1]
  IC50: 460 nM
[2]
  IC50: 730 nM
[3]
  IC50: 110 nM
[4]
  IC50: 730 nM
[5]
  IC50: 22 nM
[6]
  IC50: 16 nM
[7]
  IC50: 6.2 nM
[8]
  IC50: 21 nM
[9]
  IC50: 650 nM
[10]
  IC50: ≤ 0.003 µM
[11]
  IC50: 260 nM
[12]
  IC50: > 10000 nM

## CCc1nc(C(N)=O)c(Nc2ccc(N3CCC(N4CCN(C)CC4)CC3)c(OC)c2)nc1NC1CCOCC1 [gilteritinib]
[13]; Reference Example Compound 55:other compound 1:20
  CI: 0.96
[13]; [23]
  CI: 0.88
[13]; [24]
  Comprehensive Evaluation: Additive (0.9-1.10)
[14]
  BWC15 (%) Mean ± SD: 5.8 ± 3.0%
  RTV15 Mean ± SD: 1.9 ± 0.5
  T/C15 (%): 41%

## Cc1[nH]c2ccccc2c1CCNCc1ccc(/C=C/C(=O)NO)cc1 [Panobinostat, panobinostat]
[15]; [25]
  IC50 Ratio: 0.08
[15]; [26]
  CI: 0.90
[15]; Reference Example Compound 55:other compound 1:0.22
  CI: 0.61
[15]
  Comprehensive Evaluation: Additive (0.9-1.10)

## COc1cccc2c1C(=O)c1c(O)c3c(c(O)c1C2=O)C[C@@](O)(C(=O)CO)C[C@@H]3O[C@H]1C[C@H](N)[C@H](O)[C@H](C)O1 [doxorubicin hydrochloride]
[16]; SU-CCS-1 in BALB/cAJcl-nu/nu mice, reference example compound 12.5 or 25 mg/kg/day iv day 1 and 8, doxorubicin hydrochloride 8 mg/kg/day iv day 1
  RTV22 compared with the control group (Dunnett's test): significantly lower
[16]; [27]
  BWC22 (%) Mean ± SD: −0.3 ± 2.6%
  RTV22 Mean ± SD: 6.6 ± 0.8
  T/C22 (%): 74%

## CC1(C)CCC(CN2CCN(c3ccc(C(=O)NS(=O)(=O)c4ccc(NCC5CCOCC5)c([N+](=O)[O-])c4)c(Oc4cnc5[nH]ccc5c4)c3)CC2)=C(c2ccc(Cl)cc2)C1 [ABT-199]
[17]; [25]
  IC50 Ratio: 119
[17]; [23]
  CI: 0.37
[17]; Reference Example Compound 55:other compound 1:180
  CI: 0.40
[17]; [24]
  Comprehensive Evaluation: Synergism (0.3-0.7)

## O=C(/C=C\n1cnc(-c2cc(C(F)(F)F)cc(C(F)(F)F)c2)n1)NNc1cnccn1 [KPT-330]
[18]; [25]
  IC50 Ratio: 21
[18]; Reference Example Compound 55:other compound 1:11
  CI: 0.69
[18]; Reference Example Compound 55:other compound 1:33
  CI: 0.75
[18]; [24]
  Comprehensive Evaluation: Moderate

## C=CC(=O)N1CCC[C@@H](n2nc(-c3ccc(Oc4ccccc4)cc3)c3c(N)ncnc32)C1 [Ibrutinib, ibrutinib]
[19]; [25]
  IC50 Ratio: 140
[19]; Reference Example Compound 55:other compound 1:111
  CI: 0.70
[19]; Reference Example Compound 55:other compound 1:333
  CI: 0.72

## CN[C@@H](C)C(=O)N[C@H](C(=O)N1CCC[C@H]1C(=O)Nc1snnc1-c1ccccc1)C1CCCCC1 [GDC-0152]
[20]; [25]
  IC50 Ratio: 2122
[20]; Reference Example Compound 55:other compound 1:90
  CI: 0.45
[20]; Reference Example Compound 55:other compound 1:270
  CI: 0.62
[20]; [24]
  Comprehensive Evaluation: Synergism (0.3-0.7)

## O=C(c1cc(Cc2n[nH]c(=O)c3ccccc23)ccc1F)N1CCN(C(=O)C2CC2)CC1 [Olaparib, olaparib]
[21]; [25]
  IC50 Ratio: 21
[21]; [28]
  CI: 0.61
[21]; [29]
  CI: 0.69
[21]; [24]
  Comprehensive Evaluation: Synergism (0.3-0.7)

## CC(C)C[C@H](NC(=O)[C@H](Cc1ccccc1)NC(=O)c1cnccn1)B(O)O [Bortezomib, bortezomib]
U266B1; [25]
  IC50 Ratio: 0.05
U266B1; Reference Example Compound 55:other compound 1:0.02
  CI: 0.56
U266B1; [26]
  CI: 0.51
U266B1; [24]
  Comprehensive Evaluation: Synergism (0.3-0.7)
[22]
  BWC15 (%) Mean ± SD: 1.3 ± 3.2%
  RTV15 Mean ± SD: 6.9 ± 3.2
  T/C15 (%): 66%

## CC(C)C[C@H](NC(=O)CNC(=O)c1cc(Cl)ccc1Cl)B(O)O [Ixazomib, ixazomib]
HL-60; [25]
  IC50 Ratio: 19
HL-60; [28]
  CI: 0.82
HL-60; [29]
  CI: 0.94
HL-60; [24]
  Comprehensive Evaluation: Additive (0.9-1.10)

## O=C(CCCCCCC(=O)Nc1ccccc1)NO [Vorinostat, vorinostat]
[15]
  Comprehensive Evaluation: Additive (0.9-1.10)
